US20210085711A1 (Japan Tobacco Inc., priority 2017, published 2021)
Read-outs that look alike come from different tables or passages of the source.

Key:
[1] = system: patients with hypermenorrhea and/or patients with hypermenorrhea-associated gynecologic diseases (iron-deficiency anemia patients); experiment: Phase II clinical trial of JTT-751: total iron-binding capacity (TIBC); assay type: in vivo, human
Description: (§1) This test was a three-stage safety and efficacy clinical trial at multi-facilities. The first stage was a pre-observation period (Day −40 to Day −1), the second stage was an administration period (Day 1 to Day 48) (efficacy and safety evaluation period), and the third stage was a post-observation period (Day 49 to Day 63) (efficacy and safety evaluation period). The safety evaluation and efficacy evaluation were performed by multi-facility collaboration, placebo control, random allocation, double-blind trial, and parallel group comparison test.
(§2) (1) Japanese patients who are 20 or more and less than 65 years old at the time of agreement and can visit an outpatient clinic (2) Patients who have an Hb value (measured using HemoCue® Hb 201 DM analyzer in the institute of clinical practice) of 7.0 g/dL or more and less than 11.0 g/dL on both the observation start date and Week 0, and the difference between the two days is 1.0 g/dL or less (3) Patients with a TIBC of 360 μg/dL or more or a serum ferritin value of less than 12 ng/mL on the observation start date
(§3) The administration period of the trial drug is seven weeks which starts from the next day of the Week 0 visit to the day before the Week 7 visit, provided that the trial drug is not taken on the scheduled Week 3 visit.
(§4) (2) Subsidiary evaluation items 1) Erythrocyte-related examination values and amount of change from Week 0 at each observation date 2) Iron-related test values and amount of change from Week 0 at each observation date 3) Achievement rate of target Hb value (female; 12.0 g/dL or more, male; 13.0 g/dL or more) at each observation date 4) Achievement rate of 1.0 g/dL or more and achievement rate of 2.0 g/dL or more in Hb value improvement from Week 0 at each observation date 5) Average daily change of Hb value from Week 0 to each observation date
(§5) The blood hemoglobin value (Hb), the serum iron level, the serum ferritin value, the total iron-binding capacity (TIBC) and the transferrin saturation rate (TSAT), and the mean corpuscular volume (MCV) were each examined at the observation start date, Week 0, Week 3, Week 7, the end of administration and the consultation at nine weeks after Week 0; the hepcidin concentration (Hepcidin 25) and the serum soluble transferrin receptor concentration (sTfR) were each examined on Week 0, Week 3 and Week 7 and at the end of administration; and the C-terminal FGF23 value (cFGF23) and the intact FGF23 value (iFGF23) were each examined on Week 0 and Week 7 and at the end of administration.

[2] = system: patients with hypermenorrhea and/or patients with hypermenorrhea-associated gynecologic diseases (iron-deficiency anemia patients); experiment: Phase II clinical trial of JTT-751: mean corpuscular volume value (MCV); assay type: in vivo, human
Description: as §1, §2, §3, §4, §5

[3] = system: patients with hypermenorrhea and/or patients with hypermenorrhea-associated gynecologic diseases (iron-deficiency anemia patients)
Description: as §1, §3, §5

[4] = 250 mg/day, 9 weeks after Week 0
[5] = 250 mg/day, End of administration
[6] = 500 mg/day, 9 weeks after Week 0
[7] = 500 mg/day, End of administration
[8] = 1000 mg/day, 9 weeks after Week 0
[9] = 1000 mg/day, End of administration
[10] = 1500 mg/day, 9 weeks after Week 0
[11] = 1500 mg/day, End of administration
[12] = 9 weeks after Week 0, JTT-751 250 mg group
[13] = 9 weeks after Week 0, JTT-751 500 mg group
[14] = 9 weeks after Week 0, JTT-751 1000 mg group
[15] = 9 weeks after Week 0, JTT-751 1500 mg group
[16] = Administration start date, JTT-751 250 mg group
[17] = Administration start date, JTT-751 500 mg group
[18] = Administration start date, JTT-751 1000 mg group
[19] = Administration start date, JTT-751 1500 mg group
[20] = End of administration, JTT-751 250 mg group
[21] = End of administration, JTT-751 500 mg group
[22] = End of administration, JTT-751 1000 mg group
[23] = End of administration, JTT-751 1500 mg group
[24] = Week 0 (baseline), JTT-751 250 mg group
[25] = Week 0 (baseline), JTT-751 500 mg group
[26] = Week 0 (baseline), JTT-751 1000 mg group
[27] = Week 0 (baseline), JTT-751 1500 mg group

Substance: Ferric citrate [JTT-751]
- TIBC, profile from the baseline (value at Week 0), Mean [1, 4]: -42.8 µg/dL
- TIBC, profile from the baseline (value at Week 0), Median [1, 4]: -39.0 µg/dL
- TIBC, profile from the baseline (value at Week 0), Mean [1, 5]: -60.1 µg/dL
- TIBC, profile from the baseline (value at Week 0), Median [1, 5]: -62.0 µg/dL
- TIBC, profile from the baseline (value at Week 0), Mean ([1]; 250 mg/day, Week 3): -28.3 µg/dL
- TIBC, profile from the baseline (value at Week 0), Median ([1]; 250 mg/day, Week 3): -24.0 µg/dL
- TIBC, profile from the baseline (value at Week 0), Mean ([1]; 250 mg/day, Week 7): -60.1 µg/dL
- TIBC, profile from the baseline (value at Week 0), Median ([1]; 250 mg/day, Week 7): -62.0 µg/dL
- TIBC, profile from the baseline (value at Week 0), Mean [1, 6]: -49.6 µg/dL
- TIBC, profile from the baseline (value at Week 0), Median [1, 6]: -49.0 µg/dL
- TIBC, profile from the baseline (value at Week 0), Mean [1, 7]: -61.7 µg/dL
- TIBC, profile from the baseline (value at Week 0), Median [1, 7]: -49.5 µg/dL
- TIBC, profile from the baseline (value at Week 0), Mean ([1]; 500 mg/day, Week 3): -30.9 µg/dL
- TIBC, profile from the baseline (value at Week 0), Median ([1]; 500 mg/day, Week 3): -28.5 µg/dL
- TIBC, profile from the baseline (value at Week 0), Mean ([1]; 500 mg/day, Week 7): -61.7 µg/dL
- TIBC, profile from the baseline (value at Week 0), Median ([1]; 500 mg/day, Week 7): -49.5 µg/dL
- TIBC, profile from the baseline (value at Week 0), Mean [1, 8]: -68.7 µg/dL
- TIBC, profile from the baseline (value at Week 0), Median [1, 8]: -75.0 µg/dL
- TIBC, profile from the baseline (value at Week 0), Mean [1, 9]: -80.4 µg/dL
- TIBC, profile from the baseline (value at Week 0), Median [1, 9]: -70.0 µg/dL
- TIBC, profile from the baseline (value at Week 0), Mean ([1]; 1000 mg/day, Week 3): -54.1 µg/dL
- TIBC, profile from the baseline (value at Week 0), Median ([1]; 1000 mg/day, Week 3): -54.0 µg/dL
- TIBC, profile from the baseline (value at Week 0), Mean ([1]; 1000 mg/day, Week 7): -80.4 µg/dL
- TIBC, profile from the baseline (value at Week 0), Median ([1]; 1000 mg/day, Week 7): -70.0 µg/dL
- TIBC, profile from the baseline (value at Week 0), Mean [1, 10]: -63.0 µg/dL
- TIBC, profile from the baseline (value at Week 0), Median [1, 10]: -68.5 µg/dL
- TIBC, profile from the baseline (value at Week 0), Mean [1, 11]: -79.7 µg/dL
- TIBC, profile from the baseline (value at Week 0), Median [1, 11]: -84.0 µg/dL
- TIBC, profile from the baseline (value at Week 0), Mean ([1]; 1500 mg/day, Week 3): -60.7 µg/dL
- TIBC, profile from the baseline (value at Week 0), Median ([1]; 1500 mg/day, Week 3): -70.0 µg/dL
- TIBC, profile from the baseline (value at Week 0), Mean ([1]; 1500 mg/day, Week 7): -79.7 µg/dL
- TIBC, profile from the baseline (value at Week 0), Median ([1]; 1500 mg/day, Week 7): -84.0 µg/dL
- total iron-binding capacity (TIBC), time-dependent change ([1]; Week 0, Week 3 and Week 7): decreased along with the continuous administration
- MCV, Mean [2, 12]: 78.9 fL
- MCV, Median [2, 12]: 79.0 fL
- MCV, Mean [2, 13]: 80.8 fL
- MCV, Median [2, 13]: 81.0 fL
- MCV, Mean [2, 14]: 83.9 fL
- MCV, Median [2, 14]: 84.0 fL
- MCV, Mean [2, 15]: 82.4 fL
- MCV, Median [2, 15]: 82.5 fL
- MCV, Mean [2, 16]: 71.5 fL
- MCV, Median [2, 16]: 73.0 fL
- MCV, Mean [2, 17]: 71.9 fL
- MCV, Median [2, 17]: 72.0 fL
- MCV, Mean [2, 18]: 72.5 fL
- MCV, Median [2, 18]: 71.0 fL
- MCV, Mean [2, 19]: 71.0 fL
- MCV, Median [2, 19]: 69.0 fL
- MCV, Mean [2, 20]: 78.4 fL
- MCV, Median [2, 20]: 79.5 fL
- MCV, Mean [2, 21]: 79.8 fL
- MCV, Median [2, 21]: 81.0 fL
- MCV, Mean [2, 22]: 82.5 fL
- MCV, Median [2, 22]: 82.0 fL
- MCV, Mean [2, 23]: 81.4 fL
- MCV, Median [2, 23]: 81.0 fL
- MCV, Mean [2, 24]: 70.8 fL
- MCV, Median [2, 24]: 72.0 fL
- MCV, Mean [2, 25]: 70.9 fL
- MCV, Median [2, 25]: 70.5 fL
- MCV, Mean [2, 26]: 72.4 fL
- MCV, Median [2, 26]: 70.0 fL
- MCV, Mean [2, 27]: 70.6 fL
- MCV, Median [2, 27]: 68.0 fL
- mean corpuscular volume value (MCV), time-dependent change ([2]; Week 0, Week 3 and Week 7): increased along with the continuous administration
- MCV, Mean ([2]; Week 3, JTT-751 250 mg group): 73.9 fL
- MCV, Median ([2]; Week 3, JTT-751 250 mg group): 74.0 fL
- MCV, Mean ([2]; Week 3, JTT-751 500 mg group): 75.3 fL
- MCV, Median ([2]; Week 3, JTT-751 500 mg group): 75.0 fL
- MCV, Mean ([2]; Week 3, JTT-751 1000 mg group): 78.3 fL
- MCV, Median ([2]; Week 3, JTT-751 1000 mg group): 77.0 fL
- MCV, Mean ([2]; Week 3, JTT-751 1500 mg group): 76.7 fL
- MCV, Median ([2]; Week 3, JTT-751 1500 mg group): 77.0 fL
- MCV, Mean ([2]; Week 7, JTT-751 250 mg group): 78.4 fL
- MCV, Median ([2]; Week 7, JTT-751 250 mg group): 79.5 fL
- MCV, Mean ([2]; Week 7, JTT-751 500 mg group): 79.8 fL
- MCV, Median ([2]; Week 7, JTT-751 500 mg group): 81.0 fL
- MCV, Mean ([2]; Week 7, JTT-751 1000 mg group): 82.5 fL
- MCV, Median ([2]; Week 7, JTT-751 1000 mg group): 82.0 fL
- MCV, Mean ([2]; Week 7, JTT-751 1500 mg group): 81.4 fL
- MCV, Median ([2]; Week 7, JTT-751 1500 mg group): 81.0 fL
- mean corpuscular volume value (MCV) at the end of administration ([2]; end of administration): a value around the normal value
- TSAT, profile from the baseline (value at Week 0), Mean [3, 4]: 4.29%
- TSAT, profile from the baseline (value at Week 0), Median [3, 4]: 3.85%
- TSAT, profile from the baseline (value at Week 0), Mean [3, 5]: 9.12%
- TSAT, profile from the baseline (value at Week 0), Median [3, 5]: 7.60%
- TSAT, profile from the baseline (value at Week 0), Mean ([3]; 250 mg/day, Week 3): 5.26%
- TSAT, profile from the baseline (value at Week 0), Median ([3]; 250 mg/day, Week 3): 4.85%
- TSAT, profile from the baseline (value at Week 0), Mean ([3]; 250 mg/day, Week 7): 9.12%
- TSAT, profile from the baseline (value at Week 0), Median ([3]; 250 mg/day, Week 7): 7.60%
- TSAT, profile from the baseline (value at Week 0), Mean [3, 6]: 7.27%
- TSAT, profile from the baseline (value at Week 0), Median [3, 6]: 5.90%
- TSAT, profile from the baseline (value at Week 0), Mean [3, 7]: 12.27%
- TSAT, profile from the baseline (value at Week 0), Median [3, 7]: 12.35%
- TSAT, profile from the baseline (value at Week 0), Mean ([3]; 500 mg/day, Week 3): 8.57%
- TSAT, profile from the baseline (value at Week 0), Median ([3]; 500 mg/day, Week 3): 3.60%
- TSAT, profile from the baseline (value at Week 0), Mean ([3]; 500 mg/day, Week 7): 12.27%
- TSAT, profile from the baseline (value at Week 0), Median ([3]; 500 mg/day, Week 7): 12.35%
- TSAT, profile from the baseline (value at Week 0), Mean [3, 8]: 12.42%
- TSAT, profile from the baseline (value at Week 0), Median [3, 8]: 12.60%
- TSAT, profile from the baseline (value at Week 0), Mean [3, 9]: 15.46%
- TSAT, profile from the baseline (value at Week 0), Median [3, 9]: 16.20%
- TSAT, profile from the baseline (value at Week 0), Mean ([3]; 1000 mg/day, Week 3): 15.56%
- TSAT, profile from the baseline (value at Week 0), Median ([3]; 1000 mg/day, Week 3): 9.90%
- TSAT, profile from the baseline (value at Week 0), Mean ([3]; 1000 mg/day, Week 7): 15.46%
- TSAT, profile from the baseline (value at Week 0), Median ([3]; 1000 mg/day, Week 7): 16.20%
- TSAT, profile from the baseline (value at Week 0), Mean [3, 10]: 11.41%
- TSAT, profile from the baseline (value at Week 0), Median [3, 10]: 9.95%
- TSAT, profile from the baseline (value at Week 0), Mean [3, 11]: 16.70%
- TSAT, profile from the baseline (value at Week 0), Median [3, 11]: 16.00%
- TSAT, profile from the baseline (value at Week 0), Mean ([3]; 1500 mg/day, Week 3): 15.59%
- TSAT, profile from the baseline (value at Week 0), Median ([3]; 1500 mg/day, Week 3): 7.90%
- TSAT, profile from the baseline (value at Week 0), Mean ([3]; 1500 mg/day, Week 7): 16.70%
- TSAT, profile from the baseline (value at Week 0), Median ([3]; 1500 mg/day, Week 7): 16.00%
